Key:
Assay in all cases: relative viability (nuclei count vs DMSO), 5 days (fraction); higher = more cells survive
Irinotecan + AZD7762 = compound: CCc1c2c(nc3ccc(OC(=O)N4CCC(N5CCCCC5)CC4)cc13)-c1cc3c(c(=O)n1C2)COC(=O)[C@]3(O)CC [Irinotecan] + NC(=O)Nc1cc(-c2cccc(F)c2)sc1C(=O)N[C@H]1CCCNC1 [AZD7762] (partner 0.2 µM)
In short: (§1)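 Lung cancer cell lines in 1536-well plates got either a single drug or a fixed anchor-drug dose together with five library-drug doses (not always all listed) in √10 steps, by pin tool, on the day after seeding. Nuclei were counted after 5 days, and relative viability is the treated-to-vehicle ratio of nuclei counts. Values are medians of duplicate plates.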

Irinotecan + Dasatinib = compound: CCc1c2c(nc3ccc(OC(=O)N4CCC(N5CCCCC5)CC4)cc13)-c1cc3c(c(=O)n1C2)COC(=O)[C@]3(O)CC [Irinotecan] + Cc1nc(Nc2ncc(C(=O)Nc3c(C)cccc3Cl)s2)cc(N2CCN(CCO)CC2)n1 [Dasatinib] (partner 0.075 µM)
In short: as §1

Irinotecan + Phenformin = compound: CCc1c2c(nc3ccc(OC(=O)N4CCC(N5CCCCC5)CC4)cc13)-c1cc3c(c(=O)n1C2)COC(=O)[C@]3(O)CC [Irinotecan] + N=C(N)NC(=N)NCCc1ccccc1 [Phenformin] (partner 250 µM)
In short: as §1

MK-8033 + Decitabine = compound: Cn1cc(-c2cnc3ccc4ccc(CS(=O)(=O)NCc5ccccn5)cc4c(=O)c3c2)cn1 [MK-8033] + Nc1ncn([C@H]2C[C@H](O)[C@@H](CO)O2)c(=O)n1 [Decitabine] (partner 2 µM)
In short: as §1

Cell Line	relative viability (Irinotecan + AZD7762; first compound 0.6325 µM)	relative viability (Irinotecan + AZD7762; first compound 2 µM)	relative viability (Irinotecan + AZD7762; first compound 6.325 µM)	relative viability (Irinotecan + AZD7762; first compound 20 µM)	relative viability (Irinotecan + Dasatinib; first compound 2 µM)	relative viability (Irinotecan + Dasatinib; first compound 6.325 µM)	relative viability (Irinotecan + Dasatinib; first compound 20 µM)	relative viability (Irinotecan + Phenformin; first compound 2 µM)	relative viability (Irinotecan + Phenformin; first compound 6.325 µM)	relative viability (Irinotecan + Phenformin; first compound 20 µM)	relative viability (MK-8033 + Decitabine; first compound 0.02 µM)	relative viability (MK-8033 + Decitabine; first compound 0.06325 µM)	relative viability (MK-8033 + Decitabine; first compound 0.2 µM)	relative viability (MK-8033 + Decitabine; first compound 0.6325 µM)	relative viability (MK-8033 + Decitabine; first compound 2 µM)	relative viability (Irinotecan + Dasatinib; first compound 0.6325 µM)	relative viability (Irinotecan + Phenformin; first compound 0.6325 µM)
201T	0.456	0.416	0.345	0.266	0.552	0.529	0.36	0.489	0.361	0.333	0.9	0.868	0.851	0.873	0.876		
A549								0.198	0.113	0.0897	0.263	0.319	0.474	0.156	0.305		
A-427	0.712	0.642	0.315	0.18	0.535	0.211	0.16	0.21	0.173	0.184	0.579	0.523	0.585	0.583	0.569		
ABC-1		0.718	0.308	0.422	0.675	0.444	0.203	0.292	0.229	0.0948	1.1	0.976	1.07	1.01	1.26		
BEN	0.55	0.677	0.447	0.472	0.331	0.199	0.252	0.247	0.24	0.272	0.805	0.702	0.655	0.71	0.761	0.238	0.242
CAL-12T	0.676	0.564	0.453	0.29	0.513	0.29	0.095	0.668	0.275	0.186							
COR-L23					0.272	0.239	0.0978	0.394	0.188	0.108	0.447	0.361	0.465	0.455	0.443	0.271	0.31
COR-L 105					0.42	0.333	0.182	0.682	0.41	0.182	0.659	0.556	0.619	0.689	0.691	0.376	0.505
ChaGo-K-1	0.584	0.542	0.27	0.204	0.474	0.236	0.178	0.352	0.191	0.218	0.525	0.463	0.56	0.385	0.511	0.351	0.413
EKVX		0.632	0.426	0.246	0.457	0.387	0.3	0.185	0.224	0.151	0.34	0.285	0.388	0.343	0.399		0.216
EMC-BAC-2	0.942	0.696	0.327	0.287	0.324	0.215	0.304	0.399	0.271	0.276	0.941	0.762	0.967	0.982	0.938	0.292	0.336
EPLC-272H		0.234	0.133	0.137	0.296	0.15	0.265	0.244	0.241	0.294	0.338	0.373	0.325	0.367	0.37	0.146	0.25
H3255	0.713	0.611	0.354	0.388	0.292	0.358	0.387	0.337	0.344	0.331	0.486		0.595	0.642	0.639	0.443	0.343
HARA	0.2	0.278	0.154	0.255	0.188	0.114	0.121	0.157	0.11	0.113	0.651	0.508	0.463	0.559	0.605	0.109	0.351
HCC-15	1.09	1.08	0.609	0.22	0.523	0.196	0.123	0.331	0.183	0.12	0.62	0.595	0.548	0.57	0.653		
HCC-44	0.909	1.03	0.798	0.486				0.251	0.147	0.211	0.95	0.933	0.948	1.02	0.954		
HCC-78	0.629	0.666	0.392	0.302	0.384	0.214	0.24	0.546	0.257	0.229	0.657	0.728	0.645	0.559	0.692	0.394	0.733
HCC-366	0.182	0.138	0.0668	0.0622	0.429	0.0758	0.0603	0.371	0.0734	0.078	0.327	0.361	0.331	0.36	0.366	0.362	0.495
HCC-827	0.201	0.193	0.203	0.182	0.219	0.247	0.227	0.349	0.159	0.209	0.345		0.322	0.376	0.37	0.459	0.345
HOP-62	0.211	0.316	0.236	0.161	0.589	0.276	0.201	0.532	0.267	0.204	0.222	0.234	0.261	0.189	0.199	0.549	0.443
LC-2-ad	0.446	0.567	0.272	0.17	0.437	0.184	0.204	0.529	0.324	0.197	0.889	1.08	0.722	0.813	0.722	0.286	0.444
LCLC-97TM1	0.0915	0.143	0.105	0.116	0.589	0.121	0.132	0.205	0.127	0.115	0.218	0.207		0.209	0.211	0.711	0.322

Cell Line	relative viability (Irinotecan + AZD7762; first compound 0.6325 µM)	relative viability (Irinotecan + AZD7762; first compound 2 µM)	relative viability (Irinotecan + AZD7762; first compound 6.325 µM)	relative viability (Irinotecan + AZD7762; first compound 20 µM)	relative viability (Irinotecan + Dasatinib; first compound 2 µM)	relative viability (Irinotecan + Dasatinib; first compound 6.325 µM)	relative viability (Irinotecan + Dasatinib; first compound 20 µM)	relative viability (Irinotecan + Phenformin; first compound 2 µM)	relative viability (Irinotecan + Phenformin; first compound 6.325 µM)	relative viability (Irinotecan + Phenformin; first compound 20 µM)	relative viability (MK-8033 + Decitabine; first compound 0.02 µM)	relative viability (MK-8033 + Decitabine; first compound 0.06325 µM)	relative viability (MK-8033 + Decitabine; first compound 0.2 µM)	relative viability (MK-8033 + Decitabine; first compound 0.6325 µM)	relative viability (MK-8033 + Decitabine; first compound 2 µM)	relative viability (Irinotecan + Dasatinib; first compound 0.6325 µM)	relative viability (Irinotecan + Phenformin; first compound 0.6325 µM)
LCLC-103H	0.458	0.682	0.497	0.4	0.439	0.324	0.275	0.358	0.256	0.321	0.699	0.724	0.673	0.736	0.766	0.413	0.344
LK-2	0.316	0.388	0.222	0.281	0.298	0.249	0.287	0.63	0.315	0.307	0.299	0.3	0.322	0.339	0.343	0.251	0.419
LOU-NH91	0.719	0.756	0.421	0.156	0.548	0.31	0.361	0.639	0.377	0.391	0.792	0.662	0.789	0.789	0.813	0.525	0.617
LU99A	0.152	0.13	0.106	0.132	0.322	0.248	0.177	0.37	0.208	0.301	0.853	0.901	0.849	0.951	0.883	0.303	0.369
LXF-289	1.01	1.05	0.425	0.192	0.265	0.172	0.139	0.46	0.262	0.162	0.377	0.394	0.352	0.408	0.338	0.138	0.5
NCI-H23	0.158	0.238	0.251	0.202	0.679	0.274	0.231	0.647	0.221	0.252	0.282	0.332	0.3		0.299	0.563	0.586
NCI-H322M	0.537	0.553	0.448	0.28	0.331	0.358	0.191	0.758	0.515	0.265	0.74	0.663	0.742	0.762	0.747	0.247	0.745
NCI-H358	0.38	0.508	0.339	0.349	0.151	0.136	0.105	0.278	0.125	0.0851	0.205	0.192	0.211	0.261	0.198	0.142	0.273
NCI-H441	0.964	0.411	0.277	0.288	0.577	0.286	0.22	0.759	0.299	0.224	0.237	0.237	0.231	0.264	0.238	0.461	0.566
NCI-H520					0.214	0.202	0.161	0.649	0.317	0.258	0.525	0.485	0.527	0.535	0.465	0.192	0.542
NCI-H661					0.64	0.353	0.141	0.329	0.277	0.191	0.528	0.441	0.53	0.531	0.528	0.691	0.254
NCI-H1563					0.458	0.44	0.514	0.691	0.608	0.38						0.392	0.634
NCI-H1623					0.442	0.214	0.22	0.696	0.233	0.219						0.391	0.548
NCI-H1648	0.562	0.768	0.434	0.466							0.402		0.543	0.515	0.468		
NCI-H1650					0.401	0.304	0.177	0.418	0.34	0.196	0.445	0.429	0.422	0.452	0.403		
NCI-H1703		0.124	0.128	0.181													
NCI-H2009					0.287	0.182	0.116	0.411	0.232	0.167	0.376	0.318	0.351	0.372	0.403	0.284	0.421
NCI-H2023					0.67	0.241	0.0645	0.391	0.178	0.0825	0.217	0.203	0.213	0.247	0.212	0.595	0.415
NCI-H2228					0.481	0.318	0.246	0.347	0.336	0.27						0.443	0.311
SK-LU-1					0.19	0.207	0.173	0.35	0.276	0.283	0.545	0.539	0.559	0.638	0.657	0.188	0.429
SK-MES-1					0.284	0.22	0.186	0.51	0.264	0.191	0.355	0.362	0.4	0.407	0.499	0.293	0.582
SW 1573					0.544	0.161	0.108	0.425	0.248	0.146	0.528	0.467	0.524	0.502	0.474	0.317	0.32

From the supplement of paper PMC10307832
